According to PMC2861555 (International journal of radiation biology, 2009):
Read-outs that look alike come from different tables or passages of the source. Marks after values point to notes of the source that are not given here.

Type: in vivo, rat
Conditions: for Bile/Urine (%): bile share of U excretion / Bile/Urine (%): urine share of U excretion / % Administered Dose Excreted: 24 h; for Reduction (%) of renal uranium vs control / reduction of bone actinide content vs control: 24 h post-metal; for % Administered Dose Excreted: bile + urine; for Renal Conc.: kidneys removed 24 h post-metal; for Kidney U Conc. / Liver U Conc. / Lung U Conc. / Spleen U Conc. / Bone (femur) U Conc.: tissue 24 h post-metal; for Bone (femur) U Conc.: bone + bone marrow; for reduction of bone actinide content vs control: femur

Row | Structure (SMILES) | Bile/Urine (%): bile share of U excretion (single dose 150 µmol kg^−1 SC) [%] | Bile/Urine (%): urine share of U excretion (single dose 150 µmol kg^−1 SC) [%] | Reduction (%) of renal uranium vs control (single dose 150 µmol kg^−1 SC) [%] | % Administered Dose Excreted (single dose 150 µmol kg^−1 SC) [%] | Renal Conc. (single dose 150 µmol kg^−1 SC) | Kidney U Conc. (single dose 150 µmol kg^−1 SC) | Liver U Conc. (single dose 150 µmol kg^−1 SC) | Lung U Conc. (single dose 150 µmol kg^−1 SC) | Spleen U Conc. (single dose 150 µmol kg^−1 SC) | Bone (femur) U Conc. (single dose 150 µmol kg^−1 SC) [µg/g] | Bile/Urine (%): bile share of U excretion (single dose 300 µmol kg^−1 PO) [%] | Bile/Urine (%): urine share of U excretion (single dose 300 µmol kg^−1 PO) [%] | Reduction (%) of renal uranium vs control (single dose 300 µmol kg^−1 PO) [%] | % Administered Dose Excreted (single dose 300 µmol kg^−1 PO) [%] | Renal Conc. (single dose 300 µmol kg^−1 PO) | Kidney U Conc. (single dose 300 µmol kg^−1 PO) | Liver U Conc. (single dose 300 µmol kg^−1 PO) | Lung U Conc. (single dose 300 µmol kg^−1 PO) | Spleen U Conc. (single dose 300 µmol kg^−1 PO) | Bone (femur) U Conc. (single dose 300 µmol kg^−1 PO) | further results
1 | COc1ccc(C2=N[C@@H](C(=O)O)CS2)c(O)c1 [compound 3, (S)-2-(2-hydroxy-4-methoxyphenyl)-4,5-dihydro-4-thiazolecarboxylic acid] | 37 | 63 | 40 | 23.8 | 51 ± 22 ^b µg g^−1 | 51 ± 22 ^b µg g^−1 | 9.0 ± 4.0 ^c µg g^−1 | 0.32 ± 0.09 ^c µg g^−1 | 0.48 ± 0.09 ^c µg g^−1 | 4.1 ± 1.6 | 85 | 15 | 73 | 26.0 | 23 ± 11 ^b µg g^−1 | 23 ± 11 ^b µg g^−1 | 2.5 ± 0.8 ^c µg g^−1 | 0.28 ± 0.10 ^c µg g^−1 | 0.29 ± 0.07 ^c µg g^−1 | 3.1 ± 1.3 µg/g | Bile/Urine (%): bile share of U excretion (single dose 300 µmol kg^−1 SC): 77%; Bile/Urine (%): urine share of U excretion (single dose 300 µmol kg^−1 SC): 23%; Reduction (%) of renal uranium vs control (single dose 300 µmol kg^−1 SC): 60%; % Administered Dose Excreted (single dose 300 µmol kg^−1 SC): 32.7%; Renal Conc. (single dose 300 µmol kg^−1 SC): 34 ± 5 ^b µg g^−1; Kidney U Conc. (single dose 300 µmol kg^−1 SC): 34 ± 5 ^b µg g^−1; Liver U Conc. (single dose 300 µmol kg^−1 SC): 6.6 ± 1.2 ^c µg g^−1; Lung U Conc. (single dose 300 µmol kg^−1 SC): 0.32 ± 0.02 ^c µg g^−1; Spleen U Conc. (single dose 300 µmol kg^−1 SC): 0.39 ± 0.07 ^c µg g^−1; Bone (femur) U Conc. (single dose 300 µmol kg^−1 SC): 3.0 ± 1.5 µg/g
2 | COc1ccc(C2=N[C@@](C)(C(=O)O)CS2)c(O)c1 [compound 7, (S)-4'-(CH3O)-DADFT] | 62 | 38 | 77 | 24.8 | 19 ± 4 ^b µg g^−1 | 19 ± 4 ^b µg g^−1 | 11.3 ± 3.2 µg/g | 0.28 ± 0.04 ^c µg g^−1 | 0.39 ± 0.08 ^c µg g^−1 | 2.9 ± 0.9 | 89 | 11 | 94 | 26.5 | 5 ± 3 ^b µg g^−1 | 5 ± 3 ^b µg g^−1 | 5.1 ± 1.7 ^c µg g^−1 | 0.30 ± 0.10 ^c µg g^−1 | 0.49 ± 0.44 µg/g | 1.7 ± 0.9 ^b µg g^−1 | Liver U Conc. (single dose 150 µmol kg^−1 SC, listed as C00017): 11.3 ± 3.2 ^c µg g^−1; Bile/Urine (%): bile share of U excretion (single dose 300 µmol kg^−1 SC): 92%; Bile/Urine (%): urine share of U excretion (single dose 300 µmol kg^−1 SC): 8%; Reduction (%) of renal uranium vs control (single dose 300 µmol kg^−1 SC): 90%; % Administered Dose Excreted (single dose 300 µmol kg^−1 SC): 33.9%; Renal Conc. (single dose 300 µmol kg^−1 SC): 8 ± 2 ^b µg g^−1; Kidney U Conc. (single dose 300 µmol kg^−1 SC): 8 ± 2 ^b µg g^−1; Liver U Conc. (single dose 300 µmol kg^−1 SC): 8.1 ± 2.4 ^c µg g^−1; Lung U Conc. (single dose 300 µmol kg^−1 SC): 0.61 ± 0.13 ^c µg g^−1; Spleen U Conc. (single dose 300 µmol kg^−1 SC): 0.67 ± 0.18 ^c µg g^−1; Bone (femur) U Conc. (single dose 300 µmol kg^−1 SC): 1.8 ± 0.6 ^b µg g^−1; reduction of bone actinide content vs control (single dose 300 µmol kg^−1 p.o.): ≥ 50%; reduction of bone actinide content vs control (single dose 300 µmol kg^−1 s.c.): ≥ 50%
